In ChEMBL document CHEMBL4507289, “Data for DCP probe GSM1” (2021):

Legend:
[1] = tested on: Epidermal growth factor receptor (Homo sapiens), P00533 [L861Q]; settings: Compound concentration 1000.0 nM
[2] = target: Death-associated protein kinase 3 (Homo sapiens) (UniProt O43293); settings: Compound concentration 1000.0 nM
[3] = target: STE20/SPS1-related proline-alanine-rich protein kinase (Homo sapiens) (UniProt Q9UEW8); settings: Compound concentration 1000.0 nM
[4] = tested on: Tyrosine-protein kinase ABL1 (Homo sapiens), P00519 [H396P]; settings: Compound concentration 1000.0 nM
[5] = target: Mitogen-activated protein kinase kinase kinase kinase 5 (Homo sapiens) (UniProt Q9Y4K4); settings: Compound concentration 1000.0 nM
[6] = tested on: Epidermal growth factor receptor (Homo sapiens), P00533 [L858R,T790M]; settings: Compound concentration 1000.0 nM
[7] = target: Serine/threonine-protein kinase 35 (Homo sapiens) (UniProt Q8TDR2); settings: Compound concentration 1000.0 nM
[8] = target: Mitogen-activated protein kinase 14 (Homo sapiens) (UniProt Q16539); settings: Compound concentration 1000.0 nM
[9] = target: Calcium/calmodulin-dependent protein kinase type 1B (Homo sapiens) (UniProt Q6P2M8); settings: Compound concentration 1000.0 nM
[10] = target: Sodium-dependent serotonin transporter (Homo sapiens, UniProt P31645); settings: Compound concentration 10.0 uM
[11] = target: Protein-tyrosine kinase 6 (Homo sapiens) (UniProt Q13882); settings: Compound concentration 1000.0 nM
[12] = target: Serine/threonine-protein kinase 24 (Homo sapiens) (UniProt Q9Y6E0); settings: Compound concentration 1000.0 nM
[13] = target: Phosphatidylinositol 4-phosphate 3-kinase C2 domain-containing subunit beta (Homo sapiens) (UniProt O00750); settings: Compound concentration 1000.0 nM
[14] = target: Cyclin-dependent kinase 8 (Homo sapiens) (UniProt P49336); settings: Compound concentration 1000.0 nM
[15] = tested on: Fibroblast growth factor receptor 3 (Homo sapiens), P22607 [G697C]; settings: Compound concentration 1000.0 nM
[16] = target: Non-receptor tyrosine-protein kinase TYK2 (Homo sapiens) (UniProt P29597); settings: Compound concentration 1000.0 nM
[17] = target: Serine/threonine-protein kinase 32C (Homo sapiens) (UniProt Q86UX6); settings: Compound concentration 1000.0 nM
[18] = target: Calcium/calmodulin-dependent protein kinase type IV (Homo sapiens) (UniProt Q16566); settings: Compound concentration 1000.0 nM
[19] = target: Mitogen-activated protein kinase 13 (Homo sapiens) (UniProt O15264); settings: Compound concentration 1000.0 nM
[20] = tested on: Tyrosine-protein kinase ABL1 (Homo sapiens), P00519 [Q252H]; settings: Compound concentration 1000.0 nM
[21] = target: Tyrosine-protein kinase Fes/Fps (Homo sapiens) (UniProt P07332); settings: Compound concentration 1000.0 nM
[22] = target: Serine/threonine-protein kinase SBK1 (Homo sapiens) (UniProt Q52WX2); settings: Compound concentration 1000.0 nM
[23] = target: Serine/threonine-protein kinase MAK (Homo sapiens) (UniProt P20794); settings: Compound concentration 1000.0 nM
[24] = target: Activin receptor type-1 (Homo sapiens) (UniProt Q04771); settings: Compound concentration 1000.0 nM
[25] = target: Angiopoietin-1 receptor (Homo sapiens) (UniProt Q02763); settings: Compound concentration 1000.0 nM
[26] = tested on: Hepatocyte growth factor receptor (Homo sapiens), P08581 [M1250T]; settings: Compound concentration 1000.0 nM
[27] = target: MAP kinase-activated protein kinase 2 (Homo sapiens) (UniProt P49137); settings: Compound concentration 1000.0 nM
[28] = target: Tyrosine-protein kinase Blk (Homo sapiens) (UniProt P51451); settings: Compound concentration 1000.0 nM
[29] = target: G protein-coupled receptor kinase 3 (Homo sapiens) (UniProt P35626); settings: Compound concentration 1000.0 nM
[30] = target: Non-receptor tyrosine-protein kinase TYK2 (Homo sapiens) (UniProt P29597); settings: Compound concentration 1000.0 nM; remark: listed apart in the source
[31] = target: TGF-beta receptor type-1 (Homo sapiens) (UniProt P36897); settings: Compound concentration 1000.0 nM
[32] = target: Phosphatidylinositol 3-kinase catalytic subunit type 3 (Homo sapiens) (UniProt Q8NEB9); settings: Compound concentration 1000.0 nM
[33] = target: Dual specificity testis-specific protein kinase 1 (Homo sapiens) (UniProt Q15569); settings: Compound concentration 1000.0 nM
[34] = target: Cyclin-dependent kinase 4 (Homo sapiens) (UniProt P11802); settings: Compound concentration 1000.0 nM
[35] = target: Interleukin-1 receptor-associated kinase 1 (Homo sapiens) (UniProt P51617); settings: Compound concentration 1000.0 nM
[36] = target: Calcium/calmodulin-dependent protein kinase type II subunit alpha (Homo sapiens) (UniProt Q9UQM7); settings: Compound concentration 1000.0 nM
[37] = target: Tyrosine-protein kinase CSK (Homo sapiens) (UniProt P41240); settings: Compound concentration 1000.0 nM
[38] = tested on: Leucine-rich repeat serine/threonine-protein kinase 2 (Homo sapiens), Q5S007 [G2019S]; settings: Compound concentration 1000.0 nM
[39] = tested on: Tyrosine-protein kinase ABL1 (Homo sapiens), P00519 [F317L]; settings: Compound concentration 1000.0 nM
[40] = target: Bone morphogenetic protein receptor type-2 (Homo sapiens) (UniProt Q13873); settings: Compound concentration 1000.0 nM
[41] = target: Mitogen-activated protein kinase kinase kinase 15 (Homo sapiens) (UniProt Q6ZN16); settings: Compound concentration 1000.0 nM
[42] = target: Dual serine/threonine and tyrosine protein kinase (Homo sapiens) (UniProt Q6XUX3); settings: Compound concentration 1000.0 nM
[43] = target: Tyrosine-protein kinase Fyn (Homo sapiens) (UniProt P06241); settings: Compound concentration 1000.0 nM
[44] = target: Serine/threonine-protein kinase PLK4 (Homo sapiens) (UniProt O00444); settings: Compound concentration 1000.0 nM
[45] = target: Activin receptor type-2A (Homo sapiens) (UniProt P27037); settings: Compound concentration 1000.0 nM

Sequence of Non-receptor tyrosine-protein kinase TYK2 (Homo sapiens) (P29597 whole entry): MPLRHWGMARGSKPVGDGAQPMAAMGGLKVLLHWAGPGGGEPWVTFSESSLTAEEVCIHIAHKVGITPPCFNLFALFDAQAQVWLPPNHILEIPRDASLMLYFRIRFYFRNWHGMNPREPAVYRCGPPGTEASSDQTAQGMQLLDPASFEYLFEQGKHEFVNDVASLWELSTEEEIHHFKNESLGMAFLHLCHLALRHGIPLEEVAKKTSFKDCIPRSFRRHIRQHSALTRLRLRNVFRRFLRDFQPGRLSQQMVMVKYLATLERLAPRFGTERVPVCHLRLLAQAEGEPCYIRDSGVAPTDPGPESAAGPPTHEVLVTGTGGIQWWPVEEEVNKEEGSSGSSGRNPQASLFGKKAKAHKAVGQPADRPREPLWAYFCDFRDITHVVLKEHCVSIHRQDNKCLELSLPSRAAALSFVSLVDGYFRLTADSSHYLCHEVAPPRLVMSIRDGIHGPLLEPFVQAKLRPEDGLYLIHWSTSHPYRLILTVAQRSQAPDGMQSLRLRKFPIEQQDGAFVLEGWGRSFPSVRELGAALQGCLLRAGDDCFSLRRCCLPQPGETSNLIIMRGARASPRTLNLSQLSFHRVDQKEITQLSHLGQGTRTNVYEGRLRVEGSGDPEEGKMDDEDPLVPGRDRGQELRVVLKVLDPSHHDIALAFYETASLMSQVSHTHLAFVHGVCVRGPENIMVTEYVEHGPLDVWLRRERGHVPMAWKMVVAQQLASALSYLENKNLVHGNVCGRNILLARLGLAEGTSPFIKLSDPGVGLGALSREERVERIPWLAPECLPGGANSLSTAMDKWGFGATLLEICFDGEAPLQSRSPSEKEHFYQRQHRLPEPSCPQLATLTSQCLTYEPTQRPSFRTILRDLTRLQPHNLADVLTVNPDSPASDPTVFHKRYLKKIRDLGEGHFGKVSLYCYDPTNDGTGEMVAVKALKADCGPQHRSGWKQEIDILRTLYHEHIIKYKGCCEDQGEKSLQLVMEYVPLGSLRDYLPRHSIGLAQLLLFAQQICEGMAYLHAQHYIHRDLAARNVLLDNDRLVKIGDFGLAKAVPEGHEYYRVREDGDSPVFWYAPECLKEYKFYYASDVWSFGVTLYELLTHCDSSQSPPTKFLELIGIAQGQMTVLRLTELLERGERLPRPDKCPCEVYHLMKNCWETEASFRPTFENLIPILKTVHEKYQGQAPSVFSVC
Sequence of Serine/threonine-protein kinase PLK4 (Homo sapiens) (O00444 whole entry): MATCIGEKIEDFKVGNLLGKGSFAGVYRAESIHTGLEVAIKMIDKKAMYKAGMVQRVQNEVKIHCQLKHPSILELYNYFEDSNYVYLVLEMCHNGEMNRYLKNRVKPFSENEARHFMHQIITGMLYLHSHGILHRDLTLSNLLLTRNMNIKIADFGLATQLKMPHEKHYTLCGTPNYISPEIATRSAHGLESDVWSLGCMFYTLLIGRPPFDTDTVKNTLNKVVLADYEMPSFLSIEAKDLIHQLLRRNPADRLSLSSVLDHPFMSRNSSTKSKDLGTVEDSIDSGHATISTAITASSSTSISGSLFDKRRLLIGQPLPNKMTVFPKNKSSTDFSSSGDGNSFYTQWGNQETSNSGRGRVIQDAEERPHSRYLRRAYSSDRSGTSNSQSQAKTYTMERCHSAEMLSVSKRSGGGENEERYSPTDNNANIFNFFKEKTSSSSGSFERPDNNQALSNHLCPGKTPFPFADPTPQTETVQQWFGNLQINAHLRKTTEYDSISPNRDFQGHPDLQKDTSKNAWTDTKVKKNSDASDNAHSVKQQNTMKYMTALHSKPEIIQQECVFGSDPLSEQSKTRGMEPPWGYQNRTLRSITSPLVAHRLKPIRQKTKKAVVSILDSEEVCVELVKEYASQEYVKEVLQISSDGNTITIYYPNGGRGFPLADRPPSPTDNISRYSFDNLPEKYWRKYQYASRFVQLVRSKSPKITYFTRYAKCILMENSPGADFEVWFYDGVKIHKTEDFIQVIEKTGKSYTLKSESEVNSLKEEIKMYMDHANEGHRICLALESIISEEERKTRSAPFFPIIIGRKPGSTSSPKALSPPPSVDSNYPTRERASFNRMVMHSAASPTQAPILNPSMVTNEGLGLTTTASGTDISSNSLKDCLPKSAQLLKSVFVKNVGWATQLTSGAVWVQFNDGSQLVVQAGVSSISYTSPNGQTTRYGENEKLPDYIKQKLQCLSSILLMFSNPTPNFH
Sequence of Leucine-rich repeat serine/threonine-protein kinase 2 (Homo sapiens), Q5S007 [G2019S] (Q5S007 whole entry G2019S): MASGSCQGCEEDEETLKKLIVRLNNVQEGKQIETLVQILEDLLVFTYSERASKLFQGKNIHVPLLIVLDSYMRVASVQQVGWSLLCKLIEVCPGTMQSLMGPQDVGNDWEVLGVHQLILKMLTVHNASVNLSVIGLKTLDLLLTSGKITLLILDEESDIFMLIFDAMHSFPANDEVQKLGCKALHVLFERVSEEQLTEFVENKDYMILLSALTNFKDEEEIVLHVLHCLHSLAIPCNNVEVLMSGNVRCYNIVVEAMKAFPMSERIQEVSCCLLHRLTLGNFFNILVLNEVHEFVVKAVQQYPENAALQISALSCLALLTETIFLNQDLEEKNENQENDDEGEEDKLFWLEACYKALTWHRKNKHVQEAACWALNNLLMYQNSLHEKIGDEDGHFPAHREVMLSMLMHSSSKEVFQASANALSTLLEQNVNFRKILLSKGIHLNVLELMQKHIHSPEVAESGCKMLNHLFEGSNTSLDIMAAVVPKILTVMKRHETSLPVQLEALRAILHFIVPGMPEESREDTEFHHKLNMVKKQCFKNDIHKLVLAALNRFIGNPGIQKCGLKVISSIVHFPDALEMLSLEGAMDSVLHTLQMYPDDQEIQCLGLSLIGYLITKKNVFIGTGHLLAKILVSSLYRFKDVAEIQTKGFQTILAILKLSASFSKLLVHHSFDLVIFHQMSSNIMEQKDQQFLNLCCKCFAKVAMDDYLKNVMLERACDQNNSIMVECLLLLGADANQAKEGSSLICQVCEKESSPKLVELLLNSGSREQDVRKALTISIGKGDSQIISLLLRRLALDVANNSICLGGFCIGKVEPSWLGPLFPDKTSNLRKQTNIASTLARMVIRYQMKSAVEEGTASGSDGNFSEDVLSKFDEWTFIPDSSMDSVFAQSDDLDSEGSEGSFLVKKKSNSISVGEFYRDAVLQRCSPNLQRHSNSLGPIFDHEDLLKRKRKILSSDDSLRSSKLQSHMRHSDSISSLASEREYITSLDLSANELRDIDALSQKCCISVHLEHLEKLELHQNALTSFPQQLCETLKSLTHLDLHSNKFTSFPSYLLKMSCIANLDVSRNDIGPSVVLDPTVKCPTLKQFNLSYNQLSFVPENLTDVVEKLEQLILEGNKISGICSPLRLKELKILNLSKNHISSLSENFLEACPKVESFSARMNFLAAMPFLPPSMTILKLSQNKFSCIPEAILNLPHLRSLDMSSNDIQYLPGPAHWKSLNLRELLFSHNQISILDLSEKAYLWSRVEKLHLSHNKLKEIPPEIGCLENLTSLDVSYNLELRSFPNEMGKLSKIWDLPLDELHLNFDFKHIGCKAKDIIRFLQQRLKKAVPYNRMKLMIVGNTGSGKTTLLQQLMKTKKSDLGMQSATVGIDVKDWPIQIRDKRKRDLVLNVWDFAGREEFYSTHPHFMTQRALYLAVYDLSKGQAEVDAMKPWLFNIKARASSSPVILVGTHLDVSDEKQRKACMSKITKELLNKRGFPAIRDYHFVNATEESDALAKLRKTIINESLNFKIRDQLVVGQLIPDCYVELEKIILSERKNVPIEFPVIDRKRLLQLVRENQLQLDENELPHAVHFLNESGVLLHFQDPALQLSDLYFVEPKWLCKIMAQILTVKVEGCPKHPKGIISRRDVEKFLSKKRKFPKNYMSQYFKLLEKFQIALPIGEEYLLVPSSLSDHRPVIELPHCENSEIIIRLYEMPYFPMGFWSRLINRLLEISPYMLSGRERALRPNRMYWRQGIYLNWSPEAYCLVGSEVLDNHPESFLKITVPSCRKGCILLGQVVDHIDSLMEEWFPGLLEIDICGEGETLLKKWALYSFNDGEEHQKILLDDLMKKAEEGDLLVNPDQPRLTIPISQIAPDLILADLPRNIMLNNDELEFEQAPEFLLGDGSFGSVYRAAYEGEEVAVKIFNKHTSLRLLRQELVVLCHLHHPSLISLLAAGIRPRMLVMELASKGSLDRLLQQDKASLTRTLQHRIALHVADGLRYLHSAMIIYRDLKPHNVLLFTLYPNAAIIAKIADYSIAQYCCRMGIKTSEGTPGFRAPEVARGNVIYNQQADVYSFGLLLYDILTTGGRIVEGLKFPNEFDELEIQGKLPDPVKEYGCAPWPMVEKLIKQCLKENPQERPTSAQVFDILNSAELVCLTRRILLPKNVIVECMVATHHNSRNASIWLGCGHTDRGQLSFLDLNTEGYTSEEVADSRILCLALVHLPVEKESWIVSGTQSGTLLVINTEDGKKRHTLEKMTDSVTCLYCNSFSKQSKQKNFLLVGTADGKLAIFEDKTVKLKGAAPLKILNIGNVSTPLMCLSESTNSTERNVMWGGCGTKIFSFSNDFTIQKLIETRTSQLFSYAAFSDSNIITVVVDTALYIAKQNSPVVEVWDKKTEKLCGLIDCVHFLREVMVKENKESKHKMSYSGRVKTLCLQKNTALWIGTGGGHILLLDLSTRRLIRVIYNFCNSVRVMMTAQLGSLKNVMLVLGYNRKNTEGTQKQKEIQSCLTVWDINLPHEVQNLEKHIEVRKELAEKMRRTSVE
Sequence of MAP kinase-activated protein kinase 2 (Homo sapiens) (P49137 whole entry, looked up): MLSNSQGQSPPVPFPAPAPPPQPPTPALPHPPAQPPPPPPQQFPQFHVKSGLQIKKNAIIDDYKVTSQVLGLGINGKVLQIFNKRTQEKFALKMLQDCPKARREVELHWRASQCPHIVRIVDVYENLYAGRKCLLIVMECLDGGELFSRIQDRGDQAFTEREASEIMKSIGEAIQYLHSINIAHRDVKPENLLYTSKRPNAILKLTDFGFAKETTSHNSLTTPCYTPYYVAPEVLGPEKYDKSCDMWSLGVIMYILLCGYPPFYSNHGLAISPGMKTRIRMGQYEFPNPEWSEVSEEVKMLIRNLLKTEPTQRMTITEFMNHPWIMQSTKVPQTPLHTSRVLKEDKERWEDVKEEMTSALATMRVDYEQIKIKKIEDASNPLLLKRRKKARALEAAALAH

Question: COc1cc(-c2cn([C@H]3CCc4c(F)cccc4N(CC(F)(F)F)C3=O)nn2)ccc1-n1cnc(C)c1 was tested. Which residual activity [1] did it give?
Answer: The residual activity was 100%.

Question: What about the residual activity [2] of the same compound?
Answer: Its residual activity is 100%.

Question: And the residual activity [3]?
Answer: Its residual activity is 100%.

Question: What about the residual activity [4] of the same compound?
Answer: Its residual activity is 100%.

Question: What about the residual activity [5] of the same compound?
Answer: Its residual activity is 5.8%.

Question: What about the residual activity [6] of the same compound?
Answer: The residual activity was 82%.

Question: What about the residual activity [7] of the same compound?
Answer: Its residual activity is 100%.

Question: What about the residual activity [8] of the same compound?
Answer: The residual activity was 100%.

Question: And the residual activity [9]?
Answer: Its residual activity is 100%.

Question: What about the inhibition [10] of the same compound?
Answer: The inhibition was 88.6%.

Question: What about the residual activity [11] of the same compound?
Answer: The residual activity was 100%.

Question: What about the residual activity [12] of the same compound?
Answer: The residual activity was 100%.

Question: And the residual activity [13]?
Answer: The residual activity was 100%.

Question: What about the residual activity [14] of the same compound?
Answer: Its residual activity is 100%.

Question: And the residual activity [15]?
Answer: The residual activity was 100%.

Question: What about the residual activity [16] of the same compound?
Answer: Its residual activity is 100%.

Question: And the residual activity [17]?
Answer: Its residual activity is 100%.

Question: And the residual activity [18]?
Answer: The residual activity was 100%.

Question: What about the residual activity [19] of the same compound?
Answer: The residual activity was 100%.

Question: What about the residual activity [20] of the same compound?
Answer: The residual activity was 100%.

Question: And the residual activity [21]?
Answer: The residual activity was 100%.

Question: What about the residual activity [22] of the same compound?
Answer: The residual activity was 94%.

Question: And the residual activity [23]?
Answer: Its residual activity is 100%.

Question: What about the residual activity [24] of the same compound?
Answer: The residual activity was 100%.

Question: What about the residual activity [25] of the same compound?
Answer: The residual activity was 100%.

Question: And the residual activity [26]?
Answer: The residual activity was 100%.

Question: And the residual activity [27]?
Answer: Its residual activity is 100%.

Question: And the residual activity [28]?
Answer: Its residual activity is 100%.

Question: And the residual activity [29]?
Answer: The residual activity was 100%.

Question: And the residual activity [30]?
Answer: Its residual activity is 100%.

Question: And the residual activity [31]?
Answer: Its residual activity is 100%.

Question: What about the residual activity [32] of the same compound?
Answer: Its residual activity is 100%.

Question: What about the residual activity [33] of the same compound?
Answer: The residual activity was 100%.

Question: And the residual activity [34]?
Answer: The residual activity was 88%.

Question: What about the residual activity [35] of the same compound?
Answer: The residual activity was 100%.

Question: What about the residual activity [36] of the same compound?
Answer: The residual activity was 100%.

Question: And the residual activity [37]?
Answer: Its residual activity is 100%.

Question: What about the residual activity [38] of the same compound?
Answer: The residual activity was 100%.

Question: What about the residual activity [39] of the same compound?
Answer: Its residual activity is 78%.

Question: And the residual activity [40]?
Answer: The residual activity was 100%.

Question: And the residual activity [41]?
Answer: Its residual activity is 100%.

Question: What about the residual activity [42] of the same compound?
Answer: Its residual activity is 100%.

Question: And the residual activity [43]?
Answer: The residual activity was 100%.

Question: And the residual activity [44]?
Answer: Its residual activity is 100%.

Question: And the residual activity [45]?
Answer: The residual activity was 0%.

Question: COc1cc(-c2cn([C@H]3CCc4ccccc4N(CC(F)(F)F)C3=O)nn2)ccc1-n1ccc(C)n1 was tested. Which residual activity [1] did it give?
Answer: Its residual activity is 100%.

Question: And the residual activity [2]?
Answer: The residual activity was 100%.

Question: What about the residual activity [3] of the same compound?
Answer: Its residual activity is 98%.

Question: And the residual activity [4]?
Answer: The residual activity was 70%.

Question: What about the residual activity [5] of the same compound?
Answer: Its residual activity is 100%.

Question: What about the residual activity [6] of the same compound?
Answer: Its residual activity is 65%.

Question: What about the residual activity [7] of the same compound?
Answer: Its residual activity is 100%.

Question: And the residual activity [8]?
Answer: Its residual activity is 94%.

Question: What about the residual activity [9] of the same compound?
Answer: The residual activity was 100%.

Question: And the inhibition [10]?
Answer: The inhibition was 90.6%.

Question: And the residual activity [11]?
Answer: Its residual activity is 100%.

Question: And the residual activity [12]?
Answer: The residual activity was 97%.

Question: And the residual activity [13]?
Answer: Its residual activity is 100%.

Question: And the residual activity [14]?
Answer: Its residual activity is 90%.

Question: What about the residual activity [15] of the same compound?
Answer: The residual activity was 90%.

Question: What about the residual activity [16] of the same compound?
Answer: The residual activity was 100%.

Question: What about the residual activity [17] of the same compound?
Answer: The residual activity was 84%.

Question: And the residual activity [18]?
Answer: The residual activity was 100%.

Question: And the residual activity [19]?
Answer: Its residual activity is 88%.

Question: What about the residual activity [20] of the same compound?
Answer: Its residual activity is 71%.

Question: And the residual activity [21]?
Answer: Its residual activity is 100%.

Question: What about the residual activity [22] of the same compound?
Answer: Its residual activity is 94%.

Question: What about the residual activity [23] of the same compound?
Answer: Its residual activity is 99%.

Question: And the residual activity [24]?
Answer: The residual activity was 100%.

Question: And the residual activity [25]?
Answer: Its residual activity is 81%.

Question: And the residual activity [26]?
Answer: The residual activity was 100%.

Question: What about the residual activity [27] of the same compound?
Answer: The residual activity was 90%.

Question: What about the residual activity [28] of the same compound?
Answer: Its residual activity is 100%.

Question: What about the residual activity [29] of the same compound?
Answer: Its residual activity is 100%.

Question: And the residual activity [30]?
Answer: The residual activity was 100%.

Question: What about the residual activity [31] of the same compound?
Answer: Its residual activity is 100%.

Question: What about the residual activity [32] of the same compound?
Answer: Its residual activity is 100%.

Question: And the residual activity [33]?
Answer: Its residual activity is 93%.

Question: What about the residual activity [34] of the same compound?
Answer: The residual activity was 53%.

Question: And the residual activity [35]?
Answer: Its residual activity is 100%.

Question: What about the residual activity [36] of the same compound?
Answer: The residual activity was 85%.

Question: What about the residual activity [37] of the same compound?
Answer: The residual activity was 100%.

Question: And the residual activity [38]?
Answer: Its residual activity is 100%.

Question: And the residual activity [39]?
Answer: Its residual activity is 57%.

Question: And the residual activity [40]?
Answer: Its residual activity is 100%.

Question: What about the residual activity [41] of the same compound?
Answer: Its residual activity is 84%.

Question: And the residual activity [42]?
Answer: Its residual activity is 100%.

Question: And the residual activity [43]?
Answer: Its residual activity is 94%.

Question: What about the residual activity [44] of the same compound?
Answer: The residual activity was 73%.

Question: And the residual activity [45]?
Answer: Its residual activity is 100%.
